“Also recorded” adds a separate entry of the source.

One experiment relates to β-catenin. As to the kind of experiment: TCF reporter assay in HaCaT Keratinocyte cell line. It is filed as cell-based. The conditions noted are these: 200 μM peptide; HaCaT Keratinocytes; vs untreated CTL; listed as SEQ ID No: 1 peptide. As to the method:
FIG. 3 illustrates a schematic view of a TCF reporter assay in HaCaT Keratinocyte cell line. TOP represents that the reporter gene has a functional binding site where β-catenin is bound. […] CTL represents that HaCaT Keratinocytes are not treated with any stimulant. iPept-2 means that HaCaT Keratinocytes are treated with the SEQ ID No: 1 peptide.
(§1) The SEQ ID No. 1 peptide is treated in Human Hair Follicular Keratinocytes (HHFK) and HaCaT Keratinocyte to study the hair growth mechanism induced by the SEQ ID No. 1 peptide.
(§2) In the present disclosure, HHFK and HaCaT Keratinocyte are used as cell models for realizing the mechanism. Reporter assay is used as bioactivity assays to identify how the SEQ ID No. 1 peptide improves hair growth.
Regarding “SPLAQAVRSSSR (a designed peptide according to experiments) [P1]”, the “activity of β-catenin (relative luciferase activity, TOP/FOP reporter)” value is given as “increase the activity of β-catenin; also recorded: enhance activity of β-catenin”.

For the next experiment, the system named is β-catenin. The experiment in a line: TCF reporter assay in Human Hair Follicular Keratinocytes (HHFK) cell line. Format: cell-based. The conditions noted are these: 200 μM peptide, vs untreated CTL, listed as SEQ ID No: 1 peptide. On the procedure: FIG. 4 illustrates a schematic view of a TCF reporter assay in Human Hair Follicular Keratinocytes (HHFK) cell line. TOP represents that the reporter gene has a functional binding site where β-catenin is bound. […] CTL represents that HHFK cell line is not treated with any stimulant. iPept-2 means that HHFK cell line is treated with the SEQ ID No: 1 peptide.
as §1, §2
Consider “SPLAQAVRSSSR (a designed peptide according to experiments) [P1]”, for which the “activity of β-catenin (relative luciferase activity, TOP/FOP reporter)” value was “increase the activity of β-catenin; also recorded: enhance activity of β-catenin”.

Another experiment has as its system hair follicles on the dorsal skin at the refractory telogen phase. As to the kind of experiment: mouse model of hair regeneration (sample applied on dorsal skin at refractory telogen phase). The conditions noted are these: high dosage level (2000 μM) administrated on the dorsal skin once a day for 10 days; female C57BL/6 mice; negative = no hair growth. Format: in vivo. The text has this:
The experimental model of the present disclosure is derived from the mouse model of the hair regeneration, which is studied by Dr. Chuong in University of Southern California.
The mouse model adopts female C57BL/6 mice (about 8 weeks).
In accordance with the reports (Muller-Rover et al., 2001; Plikus et al., 2009), after the hair removal on the dorsal skin of the female C57BL/6 mice by wax or uprooting, the hair follicles enter the anagen phase on the seventh day from hair removal. At this time, the dorsal hair will regenerate during the anagen phase, which continues fourteen days. Such step synchronizes all follicles on the dorsal skin.
The hair follicles on the dorsal skin enter the refractory telogen phase through the anagen phase. The refractory telogen phase continues twenty eight days. In the present disclosure, the sample solution is applied on the dorsal skin, where the hair follicle stays at the refractory telogen phase, to observe whether the peptides are beneficial to hair growth.
In some embodiments shown in FIG. 1, after the hair removal of the dorsal skin, the new growth hair is removed again at twenty first day after the first hair removal. […] The sample solution is applied on each of the sections for 10 days. The administration of the sample solution includes, but not limited to, the injection (50 μl) and the coating (10 μl). In addition, the dosage of the sample solution includes, but not limited to, the high dosage level (2000 μM) and the low dosage level (200 μM).
In order to avoid experimental error due to manual operation, a positive control and a negative control are predetermined on two sections. […] The second section 2 is coated with high dosage level of HGP or the pharmaceutical composition for 10 days (once a day). The third section 3 is coated with low dosage level of HGP or the pharmaceutical composition for 10 days (once a day). The fourth section 4 is coated with 100% alcohol for 10 days (once a day). The fourth section 4 is regarded as the negative control. The fifth section 5 is continuously injected with the high dosage of HGP or pharmaceutical composition for 10 days (once a day). The sixth section 6 is continuously injected with the low dosage of HGP or pharmaceutical composition for 10 days (once a day). The HGP prepared for the sections is the same amino acid sequence.
HGP or pharmaceutical composition having the same as referred at Table 1 is implemented through the above-mentioned process and then the hair regeneration condition is recorded every day. Since the period of the refractory telogen phase is 28 days, it is regarded as a negative result that no hair regeneration is observed at thirtieth day after the administration of the sample solution.
The number x of the hair growth in the table 3 means that the hair regeneration condition is observed at the x'th day after the high dosage level is administrated on the dorsal skin. For instance, the number (x=5) means that the hair growth is observed at the fifth day. Furthermore, the symbol NA represents the need for further analysis. […] In addition, the “negative” represents no hair growth by using the peptide in accordance with the experimental number.
On to “PLAQAVRSSSR (a designed peptide according to experiments) [P12]”, for which the “Number x (hair regeneration condition is observed at the x'th day after administration)” value (“Number x” below) came out at 22 days.

As to “AVRSSSR (a designed peptide according to experiments) [P16]”, the “Number x” value is given as “negative”.

Turning to “SPLAQ (a designed peptide according to experiments) [P3]”, the “Number x” value turned out to be 22 days.

For the substance “GSFAQAVRSSSR (a designed peptide according to experiments) [P29]”, the “Number x” value is 22 days.

Take “SPLAQAVR (a designed peptide according to experiments) [P9]”: the “Number x” value was 19 days.

As to “GPLAQAVRSSSR (a designed peptide according to experiments) [P27]”, the “Number x” value came to 22 days.

For the substance “SPLAQAVRSSGS (a designed peptide according to experiments) [P19]”, the “Number x” value was “negative”.

Take “LAQAVRSSSR (a designed peptide according to experiments) [P13]”: the “Number x” value turned out to be 22 days.

Take SPLAQGSFGSFG [P24]: the “Number x” value is “negative”.

As for “RSSSR (a designed peptide according to experiments) [P5]”, the “Number x” value stood at 22 days.

For “AGSFFSGRSSSR (a designed peptide according to experiments) [P37]”, the “Number x” value came to 22 days.

Take “AQAGSFVRSSSR (a designed peptide according to experiments) [P35]”: the “Number x” value is reported as “negative”.

Take “SPLAQAVRSSS (a designed peptide according to experiments) [P6]”: the “Number x” value is “negative”.

Take “QAGSFGFRSSSR (a designed peptide according to experiments) [P36]”: the “Number x” value was “negative”.

Regarding “AQAVRSSSR (a designed peptide according to experiments) [P14]”, the “Number x” value amounted to 22 days.

Take “SPLAQA (a designed peptide according to experiments) [P11]”: the “Number x” value was 22 days.

For “SPLAQAVRSSSRTPS (a designed peptide according to experiments) [P4]”, the “Number x” value was found to be 22 days.

As for “SPLAQAV (a designed peptide according to experiments) [P10]”, the “Number x” value was 22 days.

As for “GSLAQAVRSSSR (a designed peptide according to experiments) [P28]”, the “Number x” value is “negative”.

As to “SPLAQAVGSFGS (a designed peptide according to experiments) [P22]”, the “Number x” value is “negative”.

Turning to “SPLAQAVRS (a designed peptide according to experiments) [P8]”, the “Number x” value is “negative”.

Take SPLAQAVRSSSG [P18]: the “Number x” value is “negative”.

“SPLAQAVRSSSR (a designed peptide according to experiments) [P1]”: the “Number x” value stood at 22 days.

Regarding “GSFGSFVRSSSR (a designed peptide according to experiments) [P32]”, the “Number x” value is recorded as “negative”.

For “QAVRSSSR (a designed peptide according to experiments) [P15]”, the “Number x” value is given as “negative”.

For “VRSSSR (a designed peptide according to experiments) [P17]”, the “Number x” value is recorded as “negative”.

On to “GSFGSAVRSSSR (a designed peptide according to experiments) [P31]”, for which the “Number x” value amounted to 22 days.

As to “SPLAQFRSSSRG (a designed peptide according to experiments) [P33]”, the “Number x” value is “negative”.

Turning to “SPLAQAVRSGSF (a designed peptide according to experiments) [P20]”, the “Number x” value is on record as “negative”.

As for “GSFGQAVRSSSR (a designed peptide according to experiments) [P30]”, the “Number x” value is recorded as “negative”.

In the case of “SPLAQAVRSSSRT (a designed peptide according to experiments) [P26]”, the “Number x” value is given as “negative”.

With “SPLAQAVRGSFG (a designed peptide according to experiments) [P21]”, the “Number x” value is reported as “negative”.

On to “LAQAGSVRSSSR (a designed peptide according to experiments) [P34]”, for which the “Number x” value is recorded as “negative”.

In the case of “SPLAQAVRSS (a designed peptide according to experiments) [P7]”, the “Number x” value was 22 days.

In the case of “VRSSS (a designed peptide according to experiments) [P2]”, the “Number x” value is recorded as “negative”.

Consider “SPLAQAGSFGSF (a designed peptide according to experiments) [P23]”, for which the “Number x” value is “negative”.

Turning to “SPLAQAVRSSSRTP (a designed peptide according to experiments) [P25]”, the “Number x” value is listed as “negative”.

(Values after US9597370B2, “Method for promoting hair growth” (INDUSTRIAL TECHNOLOGY RESEARCH INSTITUTE, priority 2013, dated 2017).)
